Columns and labels:
[1] = target: T1, K-Ras WT (Homo sapiens, UniProt P01116); experiment: HTRF resonance energy transfer assay, K-Ras WT / SOS1 interaction; format: biochemical; conditions: HTRF assay of Example 5; read-out: IC50 against K-Ras WT
T1 construct: made in house; host or cells: E. coli BL21 (DE3)
Procedure, shortened: (§1)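 Compounds, tested in duplicate at 10 μM down to 0.01 μM, were read after about 10 min or more by HTRF as the 665/620 nm emission ratio (337 nm excitation) to derive IC50. This ratio reports FRET between an anti-GST-Eu donor on GST-K-Ras (wild-type or mutant) and an anti-6His-XL665 acceptor on His-hSOS1. Buffer: ~5 mM HEPES pH 7.4, 150 mM NaCl, 1 mM DTT, 0.05% BSA, 0.0025% Igepal.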

[2] = target: T2, K-Ras G12S (Homo sapiens, UniProt P01116, G12S); experiment: HTRF resonance energy transfer assay, K-Ras G12S / SOS1 interaction; format: biochemical; conditions: HTRF assay of Example 5; read-out: IC50 against K-Ras G12S
T2 construct: made in house; host or cells: E. coli BL21 (DE3)
T2 sequence (P01116 1-188 isoform P01116-2 G12S): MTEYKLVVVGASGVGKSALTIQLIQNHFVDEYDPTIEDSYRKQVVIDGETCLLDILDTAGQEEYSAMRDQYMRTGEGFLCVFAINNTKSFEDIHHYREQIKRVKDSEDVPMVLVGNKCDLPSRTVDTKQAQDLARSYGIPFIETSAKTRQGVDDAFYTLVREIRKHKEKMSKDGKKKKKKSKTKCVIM
Procedure, shortened: as §1

[3] = system: A549 cells; experiment: Ras cellular assay, growth of cells with K-Ras G12S mutation (CellTiter-Glo); format: cell-based; conditions: Homo sapiens, cell growth, Example 9, G12S mutation, read-out: IC50 against A549 cells
Procedure, shortened: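 Growth inhibition IC50 values come from four-parameter fits of CellTiter-Glo luminescence, read about 6 days after compound addition. G12S-mutant A549 cells (e.g. 800/well, RPMI-1640 + 10% heat-inactivated FBS) were plated in tissue-culture-treated or ultra-low-attachment 384-well format. Dosing began the following day with serial dilutions, e.g. 10 points, 3-fold.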

[4] = system: GP2D cells; experiment: Ras cellular assay, growth of cells with K-Ras G12D mutation (CellTiter-Glo); format: cell-based; conditions: cell growth, Example 9, G12D mutation, read-out: IC50 against GP2D cells
[5] = target: T3, K-Ras G12D (Homo sapiens, UniProt P01116, G12D); experiment: HTRF resonance energy transfer assay, K-Ras G12D / SOS1 interaction; format: biochemical; conditions: HTRF assay of Example 5; read-out: IC50 against K-Ras G12D
T3 construct: made in house; host or cells: E. coli BL21 (DE3)
T3 sequence (P01116 1-188 isoform P01116-2 G12D): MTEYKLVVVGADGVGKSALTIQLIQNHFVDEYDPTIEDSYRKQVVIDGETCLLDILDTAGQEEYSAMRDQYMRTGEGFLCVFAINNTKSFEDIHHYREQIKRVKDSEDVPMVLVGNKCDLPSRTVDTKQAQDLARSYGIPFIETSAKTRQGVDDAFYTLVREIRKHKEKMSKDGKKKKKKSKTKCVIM
Procedure, shortened: as §1

[6] = target: T4, K-Ras G12V (Homo sapiens, UniProt P01116, G12V); experiment: HTRF resonance energy transfer assay, K-Ras G12V / SOS1 interaction; format: biochemical; conditions: HTRF assay of Example 5; read-out: IC50 against K-Ras G12V
T4 construct: made in house; host or cells: E. coli BL21 (DE3)
T4 sequence (P01116 1-188 isoform P01116-2 G12V): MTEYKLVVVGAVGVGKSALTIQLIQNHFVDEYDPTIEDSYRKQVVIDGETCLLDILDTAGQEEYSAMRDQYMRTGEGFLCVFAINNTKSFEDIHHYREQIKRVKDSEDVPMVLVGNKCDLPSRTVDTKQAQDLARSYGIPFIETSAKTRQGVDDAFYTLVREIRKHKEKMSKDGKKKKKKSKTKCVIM
Procedure, shortened: as §1

[7] = system: SW620 cells; experiment: Ras cellular assay, growth of cells with K-Ras G12V mutation (CellTiter-Glo); format: cell-based; conditions: Homo sapiens, SW-620; cell growth, Example 9, G12V mutation; read-out: IC50 against SW620 cells
Procedure, shortened: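 IC50 values came from a four-parameter fit of CellTiter-Glo viability, read roughly 6 days after dosing with e.g. a 10-point threefold dilution series. G12V-mutant SW620 cells (e.g. 800 per well) had been plated the previous day in RPMI-1640/10% heat-inactivated FBS, on tissue culture-treated or ultra-low attachment plates.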

T1 sequence (P01116 1-188 isoform P01116-2): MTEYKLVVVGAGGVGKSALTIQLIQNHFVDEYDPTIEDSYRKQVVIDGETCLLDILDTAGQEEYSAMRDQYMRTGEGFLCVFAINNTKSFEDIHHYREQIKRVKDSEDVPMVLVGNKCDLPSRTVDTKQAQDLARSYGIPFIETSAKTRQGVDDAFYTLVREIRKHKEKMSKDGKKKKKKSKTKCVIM

| IC50 [1] [nM] | IC50 [2] [nM] | IC50 [3] [nM] | IC50 [5] [nM] | IC50 [6] [nM] | IC50 [7] [nM] | SMILES | IC50 [4] [nM] |
| --- | --- | --- | --- | --- | --- | --- | --- |
| < 100 | < 100 | < 5000 | < 100 | < 100 | < 5000 | C[C@@H](O)[C@H]1COc2c(Cl)c(-c3ccc(F)c4sc(N)c(C#N)c34)c(F)c3nc(OC[C@@]45CCCN4C[C@H](F)C5)nc(c23)N1CC(F)F [Compound 1080, 2-amino-4-((5R)-8-chloro-4-(2,2-difluoroethyl)-10-fluoro-2-(((2R,7aS)-2-fluorotetrahydro-1H-pyrrolizin-7a(5H)-yl)methoxy)-5-((R)-1-hydroxyethyl)-5,6-dihydro-4H-[1,4]oxazepino[5,6,7-de]quinazolin-9-yl)-7-fluorobenzo[b]thiophene-3-carbonitrile] | < 500 |
| < 100 | < 100 | < 5000 | < 100 | < 100 | < 5000 | CC(C(F)F)N1CCOc2c(Cl)c(-c3ccc(F)c4sc(N)c(C#N)c34)c(F)c3nc(OC[C@@]45CCCN4C[C@H](F)C5)nc1c23 (stereo partly drawn) [Compound 1000, 2-amino-4-(8-chloro-4-(1,1-difluoropropan-2-yl)-10-fluoro-2-(((2R,7aS)-2-fluorotetrahydro-1H-pyrrolizin-7a(5H)-yl)methoxy)-5,6-dihydro-4H-[1,4]oxazepino[5,6,7-de]quinazolin-9-yl)-7-fluorobenzo[b]thiophene-3-carbonitrile] | < 500 |
| < 100 | < 100 | < 5000 | < 100 | < 100 | < 5000 | CC(F)(F)CN1CCOc2c(Cl)c(-c3ccc(F)c4sc(N)c(C#N)c34)c(F)c3nc(OC[C@@]45CCCN4C[C@H](F)C5)nc1c23 [Compound 1108, 2-amino-4-(8-chloro-4-(2,2-difluoropropyl)-10-fluoro-2-(((2R,7aS)-2-fluorotetrahydro-1H-pyrrolizin-7a(5H)-yl)methoxy)-5,6-dihydro-4H-[1,4]oxazepino[5,6,7-de]quinazolin-9-yl)-7-fluorobenzo[b]thiophene-3-carbonitrile] | < 500 |
| < 100 | < 100 | < 5000 | < 100 | < 100 | < 5000 | N#Cc1c(N)sc2c(F)ccc(-c3c(Cl)c4c5c(nc(OC[C@@]67CCCN6C[C@H](F)C7)nc5c3F)N(C3CCC(OC(F)F)C3)CCO4)c12 (stereo partly drawn) [Compound 740, 2-amino-4-(8-chloro-4-(3-(difluoromethoxy)cyclopentyl)-10-fluoro-2-(((2R,7aS)-2-fluorotetrahydro-1H-pyrrolizin-7a(5H)-yl)methoxy)-5,6-dihydro-4H-[1,4]oxazepino[5,6,7-de]quinazolin-9-yl)-7-fluorobenzo[b]thiophene-3-carbonitrile] | < 500 |
| < 100 | < 100 | < 5000 | < 100 | < 100 | < 5000 | COC1(C(=O)N2CCC(N3CCOc4c(Cl)c(-c5ccc(F)c6sc(N)c(C#N)c56)c(F)c5nc(OC[C@@]67CCCN6C[C@H](F)C7)nc3c45)C2)CC1 (stereo partly drawn) [Compound 1038, 2-amino-4-(8-chloro-10-fluoro-2-(((2R,7aS)-2-fluorotetrahydro-1H-pyrrolizin-7a(5H)-yl)methoxy)-4-(1-(1-methoxycyclopropane-1-carbonyl)pyrrolidin-3-yl)-5,6-dihydro-4H-[1,4]oxazepino[5,6,7-de]quinazolin-9-yl)-7-fluorobenzo[b]thiophene-3-carbonitrile] | < 500 |
| < 100 | < 100 | < 5000 | < 100 | < 100 | < 5000 | N#Cc1c(N)sc2c(F)ccc(-c3c(Cl)c4c5c(nc(OC[C@@]67CCCN6C[C@H](F)C7)nc5c3F)N([C@@H]3CCN(C(=O)C(F)F)C3)CCO4)c12 [Compound 796, 2-amino-4-(8-chloro-4-((R)-1-(2,2-difluoroacetyl)pyrrolidin-3-yl)-10-fluoro-2-(((2R,7aS)-2-fluorotetrahydro-1H-pyrrolizin-7a(5H)-yl)methoxy)-5,6-dihydro-4H-[1,4]oxazepino[5,6,7-de]quinazolin-9-yl)-7-fluorobenzo[b]thiophene-3-carbonitrile] | < 500 |
| < 100 | < 100 | < 5000 | < 100 | < 100 | < 5000 | N#Cc1c(N)sc2c(F)ccc(-c3c(Cl)c4c5c(nc(OC[C@@]67CCCN6C[C@H](F)C7)nc5c3F)N(C3CCN(C(=O)COC(F)F)C3)CCO4)c12 (stereo partly drawn) [Compound 785, 2-amino-4-(8-chloro-4-(1-(2-(difluoromethoxy)acetyl)pyrrolidin-3-yl)-10-fluoro-2-(((2R,7aS)-2-fluorotetrahydro-1H-pyrrolizin-7a(5H)-yl)methoxy)-5,6-dihydro-4H-[1,4]oxazepino[5,6,7-de]quinazolin-9-yl)-7-fluorobenzo[b]thiophene-3-carbonitrile] | < 500 |
| < 100 | < 100 | < 5000 | < 100 | < 100 | < 5000 | N#Cc1c(N)sc2c(F)ccc(-c3c(Cl)c4c5c(nc(OC[C@@]67CCCN6C[C@H](F)C7)nc5c3F)N(C3CC(NC(=O)C(F)F)C3)CCO4)c12 (stereo partly drawn) [Compound 612, N-(3-(9-(2-amino-3-cyano-7-fluorobenzo[b]thiophen-4-yl)-8-chloro-10-fluoro-2-(((2R,7aS)-2-fluorotetrahydro-1H-pyrrolizin-7a(5H)-yl)methoxy)-5,6-dihydro-4H-[1,4]oxazepino[5,6,7-de]quinazolin-4-yl)cyclobutyl)-2,2-difluoroacetamide] | < 500 |
| < 100 | < 100 | < 5000 | < 100 | < 100 | < 5000 | N#Cc1c(N)sc2c(F)ccc(-c3c(Cl)c4c5c(nc(OC[C@@]67CCCN6C[C@H](F)C7)nc5c3F)N(C3(C(F)F)CC3)CCO4)c12 [Compound 1060, 2-amino-4-(8-chloro-4-(1-(difluoromethyl)cyclopropyl)-10-fluoro-2-(((2R,7aS)-2-fluorotetrahydro-1H-pyrrolizin-7a(5H)-yl)methoxy)-5,6-dihydro-4H-[1,4]oxazepino[5,6,7-de]quinazolin-9-yl)-7-fluorobenzo[b]thiophene-3-carbonitrile] | < 500 |
| < 100 | < 100 | < 5000 | < 100 | < 100 | < 5000 | N#Cc1c(N)sc2c(F)ccc(-c3c(Cl)c4c5c(nc(OC[C@@]67CCCN6C[C@H](F)C7)nc5c3F)N(CC(F)F)CC(CO)O4)c12 (stereo partly drawn) [Compound 1002, 2-amino-4-(8-chloro-4-(2,2-difluoroethyl)-10-fluoro-2-(((2R,7aS)-2-fluorotetrahydro-1H-pyrrolizin-7a(5H)-yl)methoxy)-6-(hydroxymethyl)-5,6-dihydro-4H-[1,4]oxazepino[5,6,7-de]quinazolin-9-yl)-7-fluorobenzo[b]thiophene-3-carbonitrile] | < 500 |
| < 100 | < 100 | < 5000 | < 100 | < 100 | < 5000 | CN1CCC(N2CCOc3c(Cl)c(-c4ccc(F)c5sc(N)c(C#N)c45)c(F)c4nc(OC[C@@]56CCCN5C[C@H](F)C6)nc2c34)C1 (stereo partly drawn) [Compound 921, 2-amino-4-(8-chloro-10-fluoro-2-(((2R,7aS)-2-fluorotetrahydro-1H-pyrrolizin-7a(5H)-yl)methoxy)-4-(1-methylpyrrolidin-3-yl)-5,6-dihydro-4H-[1,4]oxazepino[5,6,7-de]quinazolin-9-yl)-7-fluorobenzo[b]thiophene-3-carbonitrile] | < 500 |
| < 100 | < 100 | < 5000 | < 100 | < 100 | < 5000 | N#Cc1c(N)sc2c(F)ccc(-c3c(Cl)c4c5c(nc(OC[C@@]67CCCN6C[C@H](F)C7)nc5c3F)N(C3CCN(C(=O)[C@H]5CCCO5)C3)CCO4)c12 (stereo partly drawn) [Compound 705, 2-amino-4-(8-chloro-10-fluoro-2-(((2R,7aS)-2-fluorotetrahydro-1H-pyrrolizin-7a(5H)-yl)methoxy)-4-(1-((R)-tetrahydrofuran-2-carbonyl)pyrrolidin-3-yl)-5,6-dihydro-4H-[1,4]oxazepino[5,6,7-de]quinazolin-9-yl)-7-fluorobenzo[b]thiophene-3-carbonitrile] | < 500 |

From patent publication US12209102B2, “Heterocyclic compounds and uses thereof” (Kumquat Biosciences Inc., priority 2022, dated 2025)
